Results on four substances are retold here after ChEMBL document CHEMBL2331275, “Fluorescence study for selecting specific ligands toward HER2 receptor: an example of receptor fragment approach” (Eur J Med Chem, 2013).

As usually defined, the Kd is a measure of binding affinity in units of concentration.

This experiment has as its target Receptor tyrosine-protein kinase erbB-2 (Homo sapiens, UniProt P04626). The experiment is described as follows: Binding affinity to synthetic peptide mimicking HER2 subdomain 4 (unknown origin) by fluorescence spectroscopic analysis.

Calls of active or inactive are those of the source. No cut-off for these calls is given here.

Sequence of Receptor tyrosine-protein kinase erbB-2 (P04626 whole entry): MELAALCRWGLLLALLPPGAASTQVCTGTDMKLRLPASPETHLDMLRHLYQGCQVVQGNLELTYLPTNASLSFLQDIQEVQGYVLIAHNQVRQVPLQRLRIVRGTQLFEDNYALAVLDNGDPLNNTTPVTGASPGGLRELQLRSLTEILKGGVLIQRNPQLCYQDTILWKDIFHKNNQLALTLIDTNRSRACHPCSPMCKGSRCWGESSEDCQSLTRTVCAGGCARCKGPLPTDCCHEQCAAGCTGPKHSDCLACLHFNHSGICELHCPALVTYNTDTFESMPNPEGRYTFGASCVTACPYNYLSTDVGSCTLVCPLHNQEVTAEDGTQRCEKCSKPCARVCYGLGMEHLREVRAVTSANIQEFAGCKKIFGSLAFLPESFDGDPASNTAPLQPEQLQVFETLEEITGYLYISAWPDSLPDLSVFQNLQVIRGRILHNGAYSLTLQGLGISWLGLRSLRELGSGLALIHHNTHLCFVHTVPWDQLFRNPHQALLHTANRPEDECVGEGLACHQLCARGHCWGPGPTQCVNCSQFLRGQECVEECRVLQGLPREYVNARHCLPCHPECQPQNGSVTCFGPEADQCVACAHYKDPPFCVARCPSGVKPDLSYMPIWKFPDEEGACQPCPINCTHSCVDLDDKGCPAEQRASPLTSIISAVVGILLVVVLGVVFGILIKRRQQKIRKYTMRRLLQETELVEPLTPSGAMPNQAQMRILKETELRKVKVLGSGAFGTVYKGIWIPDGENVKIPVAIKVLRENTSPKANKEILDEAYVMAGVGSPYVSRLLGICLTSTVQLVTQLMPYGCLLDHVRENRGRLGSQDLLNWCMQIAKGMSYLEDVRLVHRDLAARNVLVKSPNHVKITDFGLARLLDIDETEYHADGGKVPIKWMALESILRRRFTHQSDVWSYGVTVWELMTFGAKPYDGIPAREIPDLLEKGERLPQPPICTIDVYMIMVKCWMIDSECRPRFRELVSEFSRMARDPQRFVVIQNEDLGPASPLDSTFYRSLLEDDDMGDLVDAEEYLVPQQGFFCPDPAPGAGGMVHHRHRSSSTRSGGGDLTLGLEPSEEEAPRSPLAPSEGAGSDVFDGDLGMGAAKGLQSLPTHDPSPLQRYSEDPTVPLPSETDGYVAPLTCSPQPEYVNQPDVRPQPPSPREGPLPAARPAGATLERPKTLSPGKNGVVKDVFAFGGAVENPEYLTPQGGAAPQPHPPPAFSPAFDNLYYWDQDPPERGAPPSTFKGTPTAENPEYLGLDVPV

Take Ac-ARIYPTNGYTRY-NH2: the equilibrium dissociation constant (Kd) was found to be 446 nM.
On the same count and under the same terms, in the case of Ac-CQQHYTTPPTFG-NH2 it was 174 nM.
For the substance Ac-CSRWGGDGFYAMDYWG-NH2, the outcome was inactive.
Ac-QDVNTAVAW-NH2 gave a Kd of 10.2 nM.
